Data taken from patent publication EP0085283A1, “Pyroglutamyl-tryptophan derivatives, process for their preparation and their therapeutic applications” (Società Italo-Britannica L. Manetti - H. Roberts & C., priority 1981, dated 1983).

Columns and labels:
Format in all cases: in vivo
[1] = tested on: male rats of Wistar strain; assay: Acquisition of shuttle-box active avoidance behavior (single session test); conditions: 1 h prior to testing
Procedure: (§1) Behavioral effects of DL-pyroglutamyl-tryptophan (pGlu-Trp) have been studied in male rats of Wistar strain (purchased from Morini, Italy), weighing 130+10 g at the onset of experiments. Animals were kept under light- dark cycle (lights on between 8.00 and 20.00) with standard food and water available ad lib. Animals were injected intraperitoneally (ip) with 10 or 100 mg/kg of pGlu-Trp dissolved in a solution of NaHCO3 1 N and adjusted at pH 7.4 with HC1 0.1 N. Control animals received injection of the vehicle alone. Injections were performed 1 h prior to the behavioral testing. The animals were used only once for the behavioral experiments.
Acquisition of active avoidance behavior was studied in a single session test. The rats were trained to avoid the unconditioned stimulus (US) of a scrambled electrical footshock (0.20 mA) delivered through the grid floor. The conditioned stimulus (CS) was a buzzer presented for 5 sec prior to the US. If no escape occurred within 20 sec of CS/US presentation, the shock was terminated. A maximum of 30 conditioning trials were given with a variable intertrial interval averaging 60 sec. The learning criterion was 5 consecutive conditioned avoidance responses (CARs). For those animals that reached this criterion in less than 30 trials, the remaining trials up to a total of 30 were considered as lARs. Indexes of avoidance behavior were the total number of CARs and the number of learners.

[2] = tested on: male rats of Wistar strain; assay: Open field behavior in a circular open field arena; conditions: 10 mg/kg ip
Procedure: as §1
Open field behavior was studied in a circular open field arena. Ambulation (number of floor units entered), rearing, grooming and defecation scores were recorded during a 5-min observation session.

[3] = tested on: male rats of Wistar strain; assay: Hot plate test for analgesia; conditions: 10 mg/kg ip
Procedure: as §1
Hot plate test for analgesia was studied with a circular hot plate ([…]) where the animals were placed singularly.
The latency in sec to the first behavioral reaction to hot pain (licking of paw) was recorded.

With O=C1CC[C@@H](C(=O)N[C@@H](Cc2c[nH]c3ccccc23)C(=O)O)N1 (racemic) [pGlu-Trp, pyroglutamyltryptophan] the “total number of CARs” value ([1]; 10 mg/kg ip, controls 14.8+1.50, difference not significant) was 12.7+1.99, the “number of CARs” value ([1]; 100 mg/kg ip, controls 14.2+1.47, p<0.02) was 19.0+1.21 and the percentage of learners ([1]; 100 mg/kg ip, controls 66.6%) was 90.9%. For the same compound, the defecation boli [2] was “decreased”, the “Ambulation (number of floor units entered)” value ([2]; 5-min observation session, controls 94.5+4.7) was 78.5+4.4 and the grooming ([2]; treated versus control rats) was “No difference”. The rearing ([2]; treated versus control rats) was “No difference” and the “analgesic effect (latency to licking of paw)” value [3] was “No analgesic effect”.
